# US8652791B2, “Method of classifying human subjects having adolescent idiopathic scoliosis (AIS) and method for screening for a compound useful in the treatment of AIS and related syndromes causing spinal deformities” (Hopital Sainte-Justine, priority 2002, dated 2014)
# “Also recorded” adds a separate entry of the source.
# How the values were obtained:
# [1] = test system: Gi proteins (inhibition of adenylyl cyclase activity in osteoblasts); test: cAMP accumulation assay in osteoblasts, Gpp(NH)p as agonist; type: cell-based, human; conditions: forskolin-stimulated
# Method: The functionality of Gi proteins was assessed by investigating their ability to inhibit adenylyl cyclase activity in osteoblasts. To obtain inhibition curve of cAMP production the non-hydrolysable analogue of GTP, Gpp(NH)p (guanilyl 5′-imidophosphate, Sigma™) was added to the forskolin-containing samples in concentrations ranging from 10 nM to 100 μM. The cAMP content was determined as described above in similar assays with melatonin.
# The values reported in FIG. 8 were detected after the administration of 10^−9M Gpp(NH)p, a GTP non-hydrolysable analogue.
# [2] = test system: forskolin-stimulated adenylyl cyclase activity in osteoblasts; test: cAMP accumulation assay in osteoblasts, melatonin as agonist; type: cell-based, human
# Method: Osteoblasts from patients with AIS and control subjects were seeded in quadruplet on 24-wells plate (1×10^5 cells/well) and incubated either with the vehicle alone, dimethyl sulphoxide (DMSO, Sigma™, Oakville, ON, Canada) or the diterpene forskolin (10^−5M, Sigma™) to stimulate the cAMP formation. Inhibition curves of cAMP production were generated by adding melatonin to the forskolin-containing samples in concentrations ranging from 10^−11M to 10^−5M in a final volume of 1 ml of DMEM media with 0.5% bovine serum albumin (BSA, Sigma™). After a 30-minute incubation at 37° C., the cells were lysed and the sample centrifuged at 4° C. The cAMP content was determined in 200 μl aliquot of the supernatant using an enzyme immunoassay kit (Amersham-Pharmacia Biosciences, Mississauga, ON, Canada). All assays were performed in duplicate.
# A method of screening of the present invention was performed and identified estrogen as one compound able to modulate the melatonin-signaling pathway impairment in AIS patients. Experiments were performed showing the effect of increasing concentrations of melatonin (10^−11 to 10^−5M) used as known agonist of melatonin-signaling pathway on forskolin-stimulated adenylyl cyclase activity in osteoblasts from two patients with AIS (group 3 see Table 2) treated or not with a physiological dose of estradiol (10^−10M). Results illustrated in panels A and B of FIG. 19 correspond to AIS patient numbered 13 and 29 in Table 1, respectively.
# [3] = test system: Gi proteins coupled to MT1 and MT2 receptors; test: Co-immunoprecipitation of Gi proteins coupled to melatonin receptors and their phosphorylation state; type: cell-based, human; conditions: for phosphorylated forms of Gi3 and Gi2 in MT1 or MT2 immune complexes: overnight treatment of the cells
# Method: Co-immunoprecipitation assays were performed with anti-MT1 and anti-MT2 specific antibodies (kind gifts of Dr Debora Angeloni and Prof Franco Fraschini, University of Milan, Italy) to identify Gi proteins coupled to individual melatonin receptor in human MG-63 osteoblasts (FIG. 9).
# The specific antibodies were incubated with membrane fractions purified from osteoblasts untreated and treated with melatonin (10^−9M), genistein or herbimycin (1 μM, tyrosine kinase inhibitors, Sigma™) or sodium orthovanadate, Na3VO4, (1 mM, tyrosine phosphatase inhibitor, Sigma™) for at least 16 h. Presence of coupled Gi proteins in respective immune-complexes were determined by SDS-PAGE and Western blot with specific Gi antibodies (Santa Cruz Biotechnology Inc., Santa Cruz, Calif., USA) and phosphorylation status of these coupled Gi proteins were determined using anti-phosphoserine, phosphothreonine and phosphotyrosine antibodies (Sigma™) using the same membrane after stripping. Purified recombinant Gi proteins were used as control for antibody specificity.
# [4] = test system: human osteoclasts; test: Osteoclast pit resorption assay on bone matrix; type: cell-based
# Method: The inhibitory effect of melatonin on osteoclasts activity was performed using normal human osteoclasts derived from peripheral blood. Mel, melatonin; luz, luzindole, a specific MT2 antagonist;
# Other functional assays with melatonin using osteoclasts derived from monocytes/lymphocytes fraction isolated from peripheral blood of AIS patients and control subjects are performed. Primary osteoclasts are derived from the peripheral blood of patients and non-scoliotic subjects using 10 ml of blood or less. Anticoagulant-treated blood is layered on the Ficoll-Paque™ solution and centrifuged for a short period of time. Differential migration during centrifugation results in the formation of layers containing different blood cells. Because of their lower density, the lymphocytes are found at the interface between the plasma and the Ficoll-Paque™ with other slowly sedimenting particles (platelet and monocytes). The lymphocytes are then recovered from the interface and subjected to a short washing step with a balanced salt solution to remove any platelets, Ficoll-Paque™ and plasma. The cells are then counted and seeded at high density (1×10^6 cells per cm^2) onto artificial bone or dentin matrix in α-MEM with 10% FBS and antibiotics. After a few days, cells that remain adherent will start to differentiate into osteoclasts, forming large multinucleate cells after 15-20 days.
# [5] = test system: osteocalcin (OC), osteopontin (OPN) and bone sialoprotein (BSP); test: Expression analysis of osteoblast terminal differentiation markers; type: cell-based; conditions: osteoblasts in vitro
# [6] = test system: human osteoblasts; test: Osteoblast proliferation assay ([3H]-thymidine incorporation); type: cell-based; conditions: melatonin 10^-9M
# Method: An assay was performed to compare the proliferation of osteoblasts of normal subjects with that of scoliotic patients. […]
# [7] = Bone mineral density (DEXA) in pinealectomized chicken; type: in vivo; conditions: melatonin 3 mg/kg/day ip
# Method: Treatment with melatonin, 3 mg/kg/day ip, increased BMD in treated animals. […]
# [8] = test system: MT1 receptor expression in MC3T3-E1 cells; test: RT-PCR expression analysis of melatonin receptors; type: cell-based; conditions: melatonin 10^-7M
# Method: RT-PCR were performed with specific primers corresponding to melatonin receptor subtypes, MT1 (panel A, FIG. 7), MT2 (panel B, FIG. 7) and OPN (panel C, FIG. 7) using 2 μg of RNA isolated every 2 h during a 24 h cycle from MC3T3-E1 cells treated (+) or not (−) with melatonin (10^−7M). […] PCR products were separated on a 1.5% agarose gel and visualized by ethidium bromide staining.
# [9] = test system: forskolin-stimulated adenylyl cyclase activity in myoblasts; test: cAMP accumulation assay in skeletal myoblasts, melatonin as agonist; type: cell-based, human; conditions: myoblasts from AIS patients
# Method: The functionality of melatonin signaling is assessed by investigating the ability of Gi proteins to inhibit stimulated adenylyl cyclase activity in intact skeletal myoblasts. Cells prepared from patients with AIS and control subjects are seeded in quadruplet on 24-wells plate (1×10^5 cells/well) and incubated either with dimethyl sulphoxide (DMSO, Sigma™) or forskolin (10^−5M, Sigma™) to stimulate the cAMP formation. To obtain the inhibition curve of cAMP production, melatonin is added to the forskolin-containing samples in concentrations ranging from 10^−11M to 10^−5M in a final volume of 1 ml of DMEM media with 0.5% bovine serum albumin (BSA). After a 30-minute incubation at 37° C., the cells are lysed and the sample centrifuged at 4° C. The cAMP content is determined in 200 μl aliquot of the supernatant using an enzyme immunoassay kit (Amersham-Pharmacia Biosciences).
# [10] = test system: scoliosis formation after pinealectomy; conditions: treatment after pinealectomy in both animal models (chicken, bipedal rats); cited from earlier work
smiles,measurement,setting,value
"Nc1nc2c(ncn2[C@@H]2O[C@H](COP(=O)(O)OP(=O)(O)NP(=O)(O)O)[C@@H](O)[C@H]2O)c(=O)[nH]1 [Gpp(NH)p, guanilyl 5′-imidophosphate]",inhibitory effect on cAMP levels,[1]; osteoblasts from a majority of AIS patients,no inhibitory effect
same,effect on cAMP levels,[1]; osteoblasts from control subjects,reduced cAMP levels
C[C@]12CC[C@@H]3c4ccc(O)cc4CC[C@H]3[C@@H]1CC[C@@H]2O [estradiol],effect on the inhibitory effect of melatonin on forskolin-stimulated adenylyl cyclase activity,"[2]; osteoblasts from two AIS patients (group 3), estradiol 10^-10M, melatonin 10^-11 to 10^-5M",further block the inhibitory effect of melatonin
O=c1c(-c2ccc(O)cc2)coc2cc(O)cc(O)c12 [genistein],phosphorylated forms of Gi3 and Gi2 in MT1 or MT2 immune complexes,[3],completely abolished the presence of both phosphorylated forms
CC(=O)NCCc1c(Cc2ccccc2)[nH]c2ccccc12 [luzindole],effect on the inhibition of osteoclasts resorption activity by melatonin,"[4]; normal human osteoclasts, luzindole added with melatonin",prevents or reduces the inhibitory effect of melatonin
COc1ccc2[nH]cc(CCNC(C)=O)c2c1 [melatonin],osteoclasts resorption activity,"[4]; normal human osteoclasts derived from peripheral blood, melatonin 10^-9M to 10^-7M",inhibits osteoclasts resorption activity
same,resorbing activity of osteoclasts,"[4]; osteoclasts isolated from animals with AIS or related syndrome, reasonably predicted",does not affect resorbing activity
same,"expression of osteoblast terminal differentiation markers OC, OPN and BSP",[5],up-regulates
same,osteoblast growth rate ([3H]-thymidine incorporation),[6]; normal osteoblasts,increases linearly
same,osteoblast growth rate ([3H]-thymidine incorporation),[6]; osteoblasts from scoliotic patients,did not respond
same,effect on cAMP accumulation,[2]; AIS group 1 osteoblasts,increased cAMP accumulation
same,inhibition of cAMP accumulation,"[2]; AIS group 2 osteoblasts, even at 10^-7M or 10^-5M melatonin",no significant inhibition; also recorded: did not respond
same,response toward melatonin treatment (cAMP),[2]; AIS group 3 osteoblasts,weak response
same,inhibitory effects on adenylyl cyclase activity,"[2]; AIS group 3 osteoblasts, higher doses of melatonin",some significant inhibitory effects
same,inhibition of cAMP accumulation,"[2]; AIS group 3 osteoblasts, physiological dose 10^-9M",no significant inhibition
same,reduction of cAMP levels (inhibition of forskolin-stimulated adenylyl cyclase activity),"[2]; osteoblasts from control subjects, forskolin 10^-5M, melatonin 10^-11M to 10^-5M, dose-dependent",60-70%
same,inhibition of forskolin-stimulated adenylyl cyclase activity,[2]; osteoblasts from patients with AIS,lack of inhibition
same,bone mineral density (BMD),[7],increased BMD
same,MT1 receptor subtype expression (RT-PCR),[8],down regulated
same,binding of Gi3 and Gi2 proteins to MT2 receptors,"[3]; osteoblast purified membranes, in presence of melatonin",increased
same,phosphorylated forms of Gi3 and Gi2 in MT1 or MT2 immune complexes,[3],completely abolished the presence of both phosphorylated forms
same,inhibition of cAMP accumulation induced by forskolin,"[9]; melatonin 10^-11 to 10^-5M, preliminary tests",incapacity of melatonin to inhibit cAMP accumulation
same,inhibition of cAMP accumulation induced by forskolin,[9]; supra pharmacological dose 10^-5M,able in 2 cases to inhibit cAMP accumulation
same,formation of scoliosis after pinealectomy,[10],prevented the formation of scoliosis
